pIC50: −log10 of the molar value. Where a name gives a salt, the structure may show the parent alone. Marks after values point to notes of the source that are not given here.
Tests used:
DBA-2 mice = test: Audiogenic seizure (AS): reversal of clonidine protection; assay type: in vivo; settings: for Minimal effective doses (MED) AS (i.p.): one hour before clonidine 0.4 mg/kg i.p., sound 30 minutes later, mice
Excerpt: Audiogenic Seizure (AS): Sound-produced seizures in mice are blocked by clonidine, an alpha2- agonist, and such a model may be used to measure the activity of a particular compound as an alpha2- antagonist, specifically as it decreases clonidine activity. The activity of clonidine in this regard and its relationship to alpha2-receptors is described by R. Horton et al. in the Journal of Pharmacology and Experimental Therapeutics, Vol. 214, No. 2, pages 437-442 (1980). DBA-2 mice (20-22 days of age; 8 to 12 g) are used in these studies. Mice are tested individually in a glass bell jar (112 inches high and 12 inches in diameter) which is placed in a sound-attenuated chamber. An electric bell is used to generate a noise level of 116-118 decibels. Mice are allowed to acclimate to the chamber for 30 seconds and are then exposed to the sound for 60 seconds. The auditory stimulation causes a convulsive episode characterized by wild running, clonus, tonus and death. […] Thus, the test compound is dissolved in a hydroxypropylmethylcellulose (HPMC) vehicle consisting of 0.1% Tween° 80 and 0.5% hydroxypropylmethylcellulose in an 0.9% by weight sodium chloride aqueous solution and injected intraperitoneally (i.p.) into the mouse. (Tween^O is a registered trademark of ICI Americas Inc., Wilmington, Delaware, USA, for emulsifiers, wetting and dispersing agents. Tween@ is polyoxyethylene sorbitan mono-oleate). After one hour, the mouse is challenged with clonidine intraperitoneally at 0.4 mg/kg of body weight. After a further 30 minutes, the mouse is subjected to a tone from a high intensity bell and the mouse is observed for seizure activity. The activity is scored on the basis of whether clonic and/or tonic seizures occur.

[1] = test system: Male Sprague-Dawley (HLA) rats; test: Clonidine hypoactivity (CH) test; assay type: in vivo
Procedure: The suppression can be prevented by administration of an alpha2-antagonist as described by J. Malick et al. in Federation Proceedings, Vol. 40, page 244 (1981), a publication of the Federation of the American Societies of Experimental Biology. Male Sprague-Dawley (HLA) rats, weighing 140 to 180 g, were used throughout these studies. Spontaneous locomotor activity was measured in Animex activity monitors supplied by Columbus Instruments, Columbus, Ohio; groups of three animals were placed in a chamber of clear "Plexiglas", 26.5 x 26.5 x 15 cm for the test. ("Plexiglas" is a trademark of Rohm & Haas Co., Philadelphia, Pennsylvania, USA, for thermoplastic polymethyl methacrylate type polymers and plastic sheets). All animals received two injections prior to testing according to the following paradigm: vehiclec (HPMC) or antagonist was administered subcutaneously 30 minutes prior to intraperitoneal administration of either HPMC or clonidine. […] Animals were placed into the motor activity chambers as soon as possible after the second injection and total activity counts were recorded for 20 minutes. Five groups of 3 rats each were used for each dose of drug or control.

[2] = biological target: T1, alpha2 binding site in human platelets (Homo sapiens, UniProt P08913); test: Tritiated yohimbine binding assay
T1 construct: from tissue; host or cells: human platelets (washed and disrupted membrane preparation)
T1 sequence (P08913 1-465): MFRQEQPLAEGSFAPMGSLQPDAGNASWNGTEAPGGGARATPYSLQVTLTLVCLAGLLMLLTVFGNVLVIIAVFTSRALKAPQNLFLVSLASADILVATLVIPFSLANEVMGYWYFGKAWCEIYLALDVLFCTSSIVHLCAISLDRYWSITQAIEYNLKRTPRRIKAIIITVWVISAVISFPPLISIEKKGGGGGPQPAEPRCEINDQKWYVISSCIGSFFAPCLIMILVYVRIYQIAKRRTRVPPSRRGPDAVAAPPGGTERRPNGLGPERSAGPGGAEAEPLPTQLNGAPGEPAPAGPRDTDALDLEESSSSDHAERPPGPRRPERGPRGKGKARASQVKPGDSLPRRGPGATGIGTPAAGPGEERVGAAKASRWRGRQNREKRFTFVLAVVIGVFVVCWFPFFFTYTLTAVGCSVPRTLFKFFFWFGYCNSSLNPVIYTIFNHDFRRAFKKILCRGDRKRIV
Procedure: The test is conducted as described by M. Daiguji et al. in Life Sciences, Vol. 28, pages 2705-2717 (1981). Platelets are washed and disrupted as described in the Daiguji article. The amount of platelet used per assay varies between 0.2 to 1.5 mg of protein. […] For the determination of non-specific binding, 20 microliters of 10 millimolar norepinephrine is used. The incubation is conducted at 25°C for 60 minutes, after which the membranes are filtered under vacuum on a GF/B filter. The filters are then counted in a scintillation counter. […] It is known that if an alpha2-agonist or alpha2-antagonist binds to alpha2 sites, such will be displaced more easily by a compound which is also of the same type, i.e., an agonist or antagonist, respectively.

mouse = test: Mouse learned helplessness swimming test (MLHS); assay type: in vivo; settings: one hour before test, time in tonic immobility
Procedure: During testing, a mouse is gently placed in the water and tested for a total of 6 minutes as follows: during the first 2 minutes the animal quickly "learns" there is no escape and spends the vast majority of the last 4 minutes floating (tonic immobility). Nothing is recorded during the first 2 minutes (learning period) but the time in seconds spent in tonic immobility during the last 4 minutes of the session is recorded. […] Control (vehicle-treated) groups are run each day and drug-treated groups are compared to these via a Student's t-test.

locus coeruleus = test: Locus coeruleus test (single unit firing, clonidine reversal); assay type: in vivo, Male Sprague-Dawley rats; settings: anesthetized rats; for clonidine required to re-suppress firing: after firing was reinstated by the test agent, i.v.; for dose that reinstated firing: i.v. infusion after clonidine 10 micrograms/kg i.v. suppressed firing
Procedure: Locus Coeruleus Test: The locus coeruleus test for alpha2-antagonist activity is predictive of anti- depressant activity as described by G. Engberg et al. in Communications in Psychopharmacology, Vol. 4, pages 233-239 (1980). The alphas-antagonistic properties of a test agent are determined as follows: Male Sprague-Dawley rats (280-320 g) are anesthetized with sodium pentobarbitol (60 mg/kg of body weight, i.p.) and placed in a stereotaxic instrument to allow precise location of the electrode in the locus coeruleus. Extracellular single unit activity is recorded from the locus coeruleus using stainless steel or tungsten microelectrodes (2-5 megohm impedance). Extracellular potentials are counted during successive 10 second intervals and recorded on a digital counter. The baseline firing rate of each neuron is determined for 3 to 5 minutes before drug administration. Drugs are injected intravenously in a volume of 0.1 ml; data are collected for 2 to 3 minutes between multiple drug injections. The ability of a test agent to reverse the suppressant effects of clonidine, and the total cumulative dose of clonidine required to override the test agent, are indicative of alpha2-antagonistic properties. In this test, 10 micrograms/kg of body weight of clonidine were administered by infusion intravenously to suppress firing.

Compound	mice protected from audiogenic seizures (DBA-2 mice; 0.4 mg/kg of body weight, i.p., 30 minutes prior to auditory stimulation) [%]	lowest dose that consistently produced a statistically significant reduction in motor activity ([1]; i.p., rats, pilot studies)	pIC50 [2]	Minimal effective doses (MED) AS (i.p.) (DBA-2 mice)	Minimal effective doses (MED) MLHS (i.p.) (mouse)	clonidine required to re-suppress firing (locus coeruleus)	dose that reinstated firing (locus coeruleus)	Minimal effective doses (MED) CH (s.c.) ([1]; rat, in vivo)	Minimal effective doses (MED) CH (s.c.) ([1]; s.c., 30 minutes before clonidine 0.01 mg/kg i.p., rats, activity counts for 20 minutes)
Clc1cccc(Cl)c1N=C1NCCN1 [Clonidine, reference compound]	100	0.01 mg/kg of body weight	–	–	–	–	–	–	–
c1ccc2c(c1)CCC(C1=NCCN1)O2 (centres unmarked) [Example 1c, 2-(2-Imidazolin-2-yl)chroman]	–	–	7.47	5 mg/kg of body weight	10 mg/kg of body weight	1280 micrograms/kg of body weight	reinstated firing at the same level	0.3 mg/kg of body weight	–
Fc1cccc2c1CCC(C1=NCCN1)O2 (centres unmarked) [Example 2e, 2-(2-Imidazolin-2-yl)-5-fluorochroman]	–	–	8.42	1 mg/kg of body weight	30 mg/kg of body weight	–	reinstated firing at the same level	0.5 mg/kg of body weight	–
Fc1cccc2c1OC(C1=NCCN1)CC2 (centres unmarked) [Example 3e, 2-(2-Imidazolin-2-yl)-8-fluorochroman]	–	–	7.27	~3* mg/kg of body weight	30 mg/kg of body weight	–	–	–	–
c1ccc2c(c1)OCC(C1=NCCN1)O2 (centres unmarked) [RX 781094, 2-[2-(1,4-benzodioxanyl)]-22imidazoline hydrochloride, reference compound]	–	–	–	2.5 mg/kg of body weight	–	–	–	–	0.03 mg/kg of body weight
COC(=O)[C@@H]1[C@H]2C[C@H]3c4[nH]c5ccccc5c4CCN3C[C@@H]2CC[C@@H]1O [yohimbine, reference compound]	–	–	–	–	–	160 micrograms/kg of body weight	2.0 mg/kg of body weight	–	–

Source: patent EP0115142B1, “Chroman compounds” (priority 1982, dated 1984)
